We go through 53 compounds from ChEMBL document CHEMBL1138416, “Synthesis and SAR of potent and selective androgen receptor antagonists: 5,6-Dichloro-benzimidazole derivatives” (Bioorg Med Chem Lett, 2007).

Molecules are shown by their SMILES. The source made the active and inactive calls. The calls are words filed in the database; no cut-off is given here.

The species named for series [1] is Rattus norvegicus. In words: Inhibition of prostate weight in testosterone treated castrated immature Sprague-Dawley rat at 2 mg/day. Type of series: functional, Prostate gland. Conditions: for inhibition: Prostate gland.
Series [2] is filed under the species Rattus norvegicus. In words: Inhibition of prostate weight in testosterone treated castrated immature Sprague-Dawley rat. Type of series: functional, Prostate gland.
For series [3], the species on record is Rattus norvegicus. In words: Inhibition of prostate weight in testosterone treated castrated immature Sprague-Dawley rat at 0.3 mg/day.
The target in series [4] is T1, Androgen receptor (Homo sapiens) (UniProt P10275).
T1 sequence (whole entry): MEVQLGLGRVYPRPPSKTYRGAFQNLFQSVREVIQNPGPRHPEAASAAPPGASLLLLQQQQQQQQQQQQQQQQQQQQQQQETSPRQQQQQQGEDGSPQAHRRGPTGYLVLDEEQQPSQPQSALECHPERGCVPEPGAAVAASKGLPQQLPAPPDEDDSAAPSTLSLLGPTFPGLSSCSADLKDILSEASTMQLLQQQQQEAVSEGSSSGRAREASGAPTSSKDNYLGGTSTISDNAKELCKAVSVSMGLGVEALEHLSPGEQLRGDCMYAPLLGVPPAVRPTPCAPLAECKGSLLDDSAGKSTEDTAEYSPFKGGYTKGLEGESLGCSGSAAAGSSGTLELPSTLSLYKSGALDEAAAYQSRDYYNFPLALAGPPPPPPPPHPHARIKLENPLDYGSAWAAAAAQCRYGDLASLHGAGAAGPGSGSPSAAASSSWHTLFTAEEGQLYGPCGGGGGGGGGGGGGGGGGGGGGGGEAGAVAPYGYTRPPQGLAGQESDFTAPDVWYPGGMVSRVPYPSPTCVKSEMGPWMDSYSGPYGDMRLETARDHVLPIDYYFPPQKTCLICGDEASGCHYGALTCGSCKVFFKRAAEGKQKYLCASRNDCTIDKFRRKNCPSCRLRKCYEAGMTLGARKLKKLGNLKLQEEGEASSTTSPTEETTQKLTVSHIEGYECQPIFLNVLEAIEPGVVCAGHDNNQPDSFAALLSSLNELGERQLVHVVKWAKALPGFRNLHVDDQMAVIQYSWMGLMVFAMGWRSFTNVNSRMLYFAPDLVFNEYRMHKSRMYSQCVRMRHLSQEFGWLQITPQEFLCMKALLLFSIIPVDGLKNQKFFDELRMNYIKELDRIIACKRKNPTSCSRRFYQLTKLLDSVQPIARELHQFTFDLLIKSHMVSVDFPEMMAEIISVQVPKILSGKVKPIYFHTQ
Description: Antagonist activity at androgen receptor expressed in COS cell at 3000 nM by whole cell assay. Type of series: functional, cell-based.

Series [5] in a line: Half life in orally dosed Sprague-Dawley rat. To be noted: in vivo, po. It is filed as ADME, organism-based.
Series [6] addresses T1, Androgen receptor (Homo sapiens). In words: Antagonist activity at androgen receptor expressed in COS cell by whole cell assay. It is filed as functional, cell-based.
A short description of series [7]: Bioavailability in orally dosed Sprague-Dawley rat. It is filed as ADME, organism-based. Conditions: in vivo, po.
The species entered for series [8] is Rattus norvegicus. Description: Inhibition of prostate weight in testosterone treated castrated mature Sprague-Dawley rat. Conditions: Prostate gland, read-out: ID50 (the source's name). Type of series: functional.

Compound `CC(O)(c1nc2cc(Cl)c(Cl)cc2[nH]1)c1cccs1` (stereo not drawn) showed an Inhibition in series [1] of 16%. Consider `CCCSCC(C)(O)c1nc2cc(Cl)c(Cl)cc2n1C` (stereo not drawn), for which the Inhibition in series [1] is 40%. On the same count and under the same terms, under `Cn1c(C(C)(O)CSc2ccc(F)cc2)nc2cc(Cl)c(Cl)cc21` (stereo not drawn) stands 6%; under `CC(O)(CO)c1nc2cc(Cl)c(Cl)cc2[nH]1` (stereo not drawn), 67%; under `Cn1c(CC(F)(F)F)nc2cc(Cl)c(Cl)cc21`, 60%. Still for that read-out and setting: the figure for `CCS(=O)(=O)CC(C)(O)c1nc2cc(Cl)c(Cl)cc2n1C` (stereo not drawn) is 79%. In series [2], `OC(c1nc2cc(Cl)c(Cl)cc2[nH]1)C(F)(F)F` (stereo in doubt; (+)-1) yielded an ID50 of 0.032 mg/day. The same compound returned an Inhibition in series [3] of 81%. Regarding `Cc1ccc(S(=O)(=O)CC(C)(O)c2nc3cc(Cl)c(Cl)cc3[nH]2)cc1` (stereo not drawn), in series [1], the Inhibition came out at 11%. In series [1], `CCC(C)c1nc2cc(Cl)c(Cl)cc2[nH]1` (stereo not drawn) displayed an Inhibition of 88%. `CCC(CC)c1nc2cc(Cl)c(Cl)cc2n1CC`: the Inhibition in series [1] turned out to be 3%. Same read-out and setting: under `COC(c1nc2cc(Cl)c(Cl)cc2n1C)C(F)(F)F` (stereo not drawn) stands 60%. In the case of `CC(C)(O)c1nc2cc(Cl)c(Cl)cc2[nH]1`, the inhibition in series [4] worked out at 90%. Besides, the half-life in series [5] was 4 h. In addition, the ID50 in series [6] was 80 nM. Also, the bioavailability in series [7] is 100%. In addition, the Inhibition in series [1] came to 77%. Take `CC(C)(O)c1nc2cc(Cl)c(C(F)(F)F)cc2[nH]1`: in series [1], the Inhibition stood at 42%. On the same count and under the same terms, under `CC(O)(CS(=O)(=O)c1ccc(F)cc1)c1nc2cc(Cl)c(Cl)cc2[nH]1` (stereo not drawn) stands 29%. As to `Cn1c(C(C)(O)CS(=O)(=O)Cc2ccccc2)nc2cc(Cl)c(Cl)cc21` (stereo not drawn), the Inhibition in series [1] came out at 16%. Compound `CCCS(=O)(=O)CC(C)(O)c1nc2cc(Cl)c(Cl)cc2n1C` (stereo not drawn) returned an Inhibition in series [1] of 26%. In the case of `CCc1nc2cc(Cl)c(Cl)cc2[nH]1`, the inhibition result in series [1] is “inactive”.

`CC(C)(O)c1nc2cc(C#N)c(C(F)(F)F)cc2[nH]1` showed an Inhibition in series [1] of 63%. Take `CCCCn1c(C(C)(C)O)nc2cc(Cl)c(Cl)cc21`: the inhibition entry in series [1] was “inactive”. Regarding `Cn1c(C(C)(C)O)nc2cc(Cl)c(Cl)cc21`, the half-life in series [5] is 3 h. Further, in series [7], the bioavailability was determined as 100%. Further, in series [1], the Inhibition is given as 91%.

Compound `CCOCC(C)(O)c1nc2cc(Cl)c(Cl)cc2n1C` (stereo not drawn) showed an Inhibition in series [1] of 10%. Consider `OC(c1nc2cc(Cl)c(Cl)cc2[nH]1)C(F)(F)F` (stereo in doubt; 1), for which, in series [5], the half-life was 14.7 h. The bioavailability in series [7] amounted to 132%. For the same compound, the ID50 in series [2] is given as 0.15 mg/day. For the same compound, the Inhibition in series [1] is 96%. Besides, in series [8], the ED50 came out at 30 mg/kg. In turn, `CC(O)(CS(=O)(=O)c1ccc(F)cc1)C(=O)Nc1ccc(C#N)c(C(F)(F)F)c1` (stereo not drawn) [BICALUTAMIDE] came in with an ID50 in series [2] of 0.23 mg/day. In addition, in series [1], the Inhibition was determined as 70%. Further, the ED50 in series [8] is 30 mg/kg. For `CC(C)CSCC(C)(O)c1nc2cc(Cl)c(Cl)cc2n1C` (stereo not drawn), the Inhibition in series [1] was 9%.

`CCCC(C)c1nc2cc(Cl)c(Cl)cc2n1C` (stereo not drawn) yielded an Inhibition in series [1] of 23%.

Consider `CC(C)(O)c1nc2cc(Cl)c(Cl)cc2n1CC#N`, for which the Inhibition in series [1] is listed as 5%.

Turning to `FC(F)(F)Cc1nc2cc(Cl)c(Cl)cc2[nH]1`, the inhibition in series [4] is 30%. This compound showed a half-life in series [5] of 5.3 h. The ID50 in series [2] was 0.097 mg/day. In series [1], this compound yielded an Inhibition of 90%. For the same compound, in series [8], the ED50 was 18 mg/kg. In the case of `CC(O)(CC#N)c1nc2cc(Cl)c(Cl)cc2[nH]1` (stereo not drawn), the Inhibition in series [1] is on record as 64%. Compound `Cn1c(C(C)(O)CSCC(F)(F)F)nc2cc(Cl)c(Cl)cc21` (stereo not drawn) registered an Inhibition in series [1] of 6%.

Consider `CC(O)(CS(C)(=O)=O)c1nc2cc(Cl)c(Cl)cc2[nH]1` (stereo not drawn), for which the inhibition entry in series [1] is “inactive”.

As for `CCC(C)c1nc2cc(Cl)c(Cl)cc2n1C` (stereo not drawn), the inhibition entry in series [1] was “inactive”. For `CCC(CC)c1nc2cc(Cl)c(Cl)cc2n1C`, in series [1], the Inhibition came to 77%. As to `CC(C)c1nc2cc(Cl)c(Cl)cc2[nH]1`, in series [1], the Inhibition is 11%. Still for that read-out and setting: under `CCCC(C)c1nc2cc(Cl)c(Cl)cc2[nH]1` (stereo not drawn) stands 32%; under `CCSCC(C)(O)c1nc2cc(Cl)c(Cl)cc2n1C` (stereo not drawn), 86%; under `COCn1c(C(C)(C)O)nc2cc(Cl)c(Cl)cc21`, 90%. Still for that read-out and setting: the figure for `CC(O)(c1nc2cc(Cl)c(Cl)cc2[nH]1)C(F)(F)F` (stereo not drawn) is 74%. Same read-out and setting: the figure for `CCn1c(C(C)(C)O)nc2cc(Cl)c(Cl)cc21` is 82%; for `CCCn1c(C(C)(C)O)nc2cc(Cl)c(Cl)cc21` it is 53%.

The compound `CCn1c(C(C)C)nc2cc(Cl)c(Cl)cc21` showed an Inhibition in series [1] of 82%. With `CC(O)(c1nc2cc(Cl)c(Cl)cc2[nH]1)c1ccco1` (stereo not drawn), the Inhibition in series [1] turned out to be 20%.

As for `CC(C)c1nc2cc(Cl)c(Cl)cc2n1C`, the Inhibition in series [1] turned out to be 93%. In series [1], `CC(C)CS(=O)(=O)CC(C)(O)c1nc2cc(Cl)c(Cl)cc2n1C` (stereo not drawn) came in with an Inhibition of 7%.

In series [2], `OC(c1nc2cc(Cl)c(Cl)cc2[nH]1)C(F)(F)F` (stereo in doubt; (-)-1) showed an ID50 of 0.12 mg/day. Also, the Inhibition in series [3] was 80%.

Take `CCn1c(C(C)(O)CS(=O)(=O)CC)nc2cc(Cl)c(Cl)cc21` (stereo not drawn): in series [4], the inhibition was 20%. Besides, the half-life in series [5] is 15 h. The bioavailability in series [7] came out at 99%. The Inhibition in series [1] was 74%. `Cn1c(C(C)(O)CS(=O)(=O)CC(F)(F)F)nc2cc(Cl)c(Cl)cc21` (stereo not drawn) registered an Inhibition in series [1] of 38%.

Regarding `CCSCC(C)(O)c1nc2cc(Cl)c(Cl)cc2n1CC` (stereo not drawn), the half-life in series [5] was 1 h. For the same compound, the bioavailability in series [7] worked out at 15%. Further, in series [1], the Inhibition amounted to 79%. As to `CSCn1c(C(C)(C)O)nc2cc(Cl)c(Cl)cc21`, the Inhibition in series [1] was 96%.

In series [1], `Cn1c(C(C)(O)CSCc2ccccc2)nc2cc(Cl)c(Cl)cc21` (stereo not drawn) yielded an Inhibition of 63%. `Cn1c(C(O)(O)C(F)(F)F)nc2cc(Cl)c(Cl)cc21`: the ID50 in series [2] is listed as 0.17 mg/day. In series [1], this compound returned an Inhibition of 94%. For the same compound, the ED50 in series [8] is 23 mg/kg.

The compound `CC(C)(O)c1nc2cc(F)c(Cl)cc2[nH]1` registered an Inhibition in series [1] of 57%. Regarding `CC(O)c1nc2cc(Cl)c(Cl)cc2[nH]1` (stereo not drawn), the inhibition result in series [1] is “inactive”. In turn, `CCC(CC)c1nc2cc(Cl)c(Cl)cc2[nH]1` yielded an Inhibition in series [1] of 80%.
